Tests used:
[1] = system: Liver microsomes; experiment: Metabolic stability in human liver microsomes assessed as low signal/noise ratio (S/N of 1 to 10) by measuring GSH adduct formation at 100 uM after 90 mins by HPLC-MS analysis; assay type: ADME, Microsome; conditions: 1.5 h
[2] = target: CYP2C19 (Homo sapiens, UniProt P33261); experiment: Inhibition of human CYP2C19 assessed as ratio of IC50 in absence of NADPH to IC50 for presence of NADPH using 3-butyryl-7-methoxycoumarin as substrate after 30 mins
[3] = target: T1, CYP3A4 (Homo sapiens, UniProt P08684); experiment: Inhibition of human CYP3A4 assessed as ratio of IC50 in absence of NADPH to IC50 for presence of NADPH using diethoxyfluorescein as substrate after 30 mins
[4] = target: T1, CYP3A4; experiment: Inhibition of human CYP3A4 assessed as ratio of IC50 in absence of NADPH to IC50 for presence of NADPH using 7-benzyloxyquinoline as substrate after 30 mins
[5] = system: Liver microsomes; experiment: Metabolic stability in human liver microsomes assessed as GSH adduct formation at 100 uM after 90 mins by HPLC-MS analysis; conditions: 1.5 h
[6] = system: Liver microsomes; conditions: human, 1.5 h, 100 µM
[7] = target: CYP2C9 (Homo sapiens, UniProt P11712); experiment: Inhibition of human CYP2C9 assessed as ratio of IC50 in absence of NADPH to IC50 for presence of NADPH using 7-methoxy-4-trifluoromethylcoumarin-3-acetic acid as substrate after 30 mins
[8] = target: T2, CYP1A2 (Homo sapiens, UniProt P05177); experiment: Inhibition of human CYP1A2 assessed as ratio of IC50 in absence of NADPH to IC50 for presence of NADPH using ethoxyresorufin as substrate after 30 mins
T2 sequence (P05177 whole entry): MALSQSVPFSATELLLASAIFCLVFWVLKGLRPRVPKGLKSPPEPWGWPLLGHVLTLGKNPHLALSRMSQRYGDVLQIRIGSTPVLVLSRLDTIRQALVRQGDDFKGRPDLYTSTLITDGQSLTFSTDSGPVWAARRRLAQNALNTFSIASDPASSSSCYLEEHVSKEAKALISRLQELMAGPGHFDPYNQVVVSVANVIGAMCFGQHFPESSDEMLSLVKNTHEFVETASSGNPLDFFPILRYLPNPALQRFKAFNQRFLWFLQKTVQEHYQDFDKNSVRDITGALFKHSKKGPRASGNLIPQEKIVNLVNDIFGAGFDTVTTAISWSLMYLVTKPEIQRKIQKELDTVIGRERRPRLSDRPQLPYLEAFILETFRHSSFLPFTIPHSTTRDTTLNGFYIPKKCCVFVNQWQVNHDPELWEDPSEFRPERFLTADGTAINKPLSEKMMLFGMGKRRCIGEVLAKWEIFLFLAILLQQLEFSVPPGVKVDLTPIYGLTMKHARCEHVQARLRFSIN

[9] = system: Liver microsomes; experiment: Metabolic stability in human liver microsomes assessed as high signal/noise ratio (S/N of >100) by measuring GSH adduct formation at 100 uM after 90 mins by HPLC-MS analysis; conditions: 1.5 h
[10] = target: CYP2D6 (Homo sapiens, UniProt P10635); experiment: Inhibition of human CYP2D6 assessed as ratio of IC50 in absence of NADPH to IC50 for presence of NADPH using 4-methylaminoethyl-7-methoxycoumarin as substrate after 30 mins
[11] = probe 3-butyryl-7-methoxycoumarin
[12] = probe 4-methylaminoethyl-7-methoxycoumarin

T1 sequence (P08684 whole entry): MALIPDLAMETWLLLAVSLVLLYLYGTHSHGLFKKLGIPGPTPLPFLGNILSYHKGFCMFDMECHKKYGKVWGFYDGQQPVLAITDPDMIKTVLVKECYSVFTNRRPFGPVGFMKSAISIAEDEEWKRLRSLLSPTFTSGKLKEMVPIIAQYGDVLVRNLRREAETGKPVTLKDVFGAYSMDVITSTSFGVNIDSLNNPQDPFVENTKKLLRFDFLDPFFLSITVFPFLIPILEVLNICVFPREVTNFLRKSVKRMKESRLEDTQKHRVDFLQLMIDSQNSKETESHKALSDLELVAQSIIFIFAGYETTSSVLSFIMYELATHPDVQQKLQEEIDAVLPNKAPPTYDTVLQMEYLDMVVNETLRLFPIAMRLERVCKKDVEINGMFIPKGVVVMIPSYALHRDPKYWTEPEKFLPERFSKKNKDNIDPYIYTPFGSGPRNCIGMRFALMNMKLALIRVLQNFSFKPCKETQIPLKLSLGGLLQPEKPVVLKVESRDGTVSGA
CYP2C19, sequence (P33261 whole entry): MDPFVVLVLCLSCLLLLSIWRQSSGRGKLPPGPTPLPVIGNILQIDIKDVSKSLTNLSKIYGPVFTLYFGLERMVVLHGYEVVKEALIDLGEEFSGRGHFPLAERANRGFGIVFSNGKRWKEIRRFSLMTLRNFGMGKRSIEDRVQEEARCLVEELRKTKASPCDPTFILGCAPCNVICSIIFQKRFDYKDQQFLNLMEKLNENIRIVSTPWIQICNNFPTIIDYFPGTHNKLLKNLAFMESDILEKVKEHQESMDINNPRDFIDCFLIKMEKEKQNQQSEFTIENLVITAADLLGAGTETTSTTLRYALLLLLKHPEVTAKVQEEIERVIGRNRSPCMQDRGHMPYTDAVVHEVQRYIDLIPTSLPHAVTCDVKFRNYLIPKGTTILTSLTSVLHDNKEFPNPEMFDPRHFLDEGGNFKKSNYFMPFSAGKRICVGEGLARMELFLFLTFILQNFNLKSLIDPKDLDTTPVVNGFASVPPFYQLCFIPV
CYP2C9, sequence (P11712 whole entry): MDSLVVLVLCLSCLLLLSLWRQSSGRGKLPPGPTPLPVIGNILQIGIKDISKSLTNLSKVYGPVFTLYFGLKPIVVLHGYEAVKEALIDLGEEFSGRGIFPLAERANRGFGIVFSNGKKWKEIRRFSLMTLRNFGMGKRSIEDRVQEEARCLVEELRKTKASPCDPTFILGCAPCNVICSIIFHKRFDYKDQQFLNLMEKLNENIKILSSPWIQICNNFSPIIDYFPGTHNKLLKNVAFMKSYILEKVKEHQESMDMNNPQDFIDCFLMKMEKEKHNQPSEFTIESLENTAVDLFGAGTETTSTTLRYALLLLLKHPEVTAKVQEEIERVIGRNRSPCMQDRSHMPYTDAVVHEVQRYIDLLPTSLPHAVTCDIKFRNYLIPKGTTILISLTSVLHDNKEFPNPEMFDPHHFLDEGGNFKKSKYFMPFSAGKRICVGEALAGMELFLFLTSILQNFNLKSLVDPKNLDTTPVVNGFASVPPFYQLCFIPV
CYP2D6, sequence (P10635 whole entry): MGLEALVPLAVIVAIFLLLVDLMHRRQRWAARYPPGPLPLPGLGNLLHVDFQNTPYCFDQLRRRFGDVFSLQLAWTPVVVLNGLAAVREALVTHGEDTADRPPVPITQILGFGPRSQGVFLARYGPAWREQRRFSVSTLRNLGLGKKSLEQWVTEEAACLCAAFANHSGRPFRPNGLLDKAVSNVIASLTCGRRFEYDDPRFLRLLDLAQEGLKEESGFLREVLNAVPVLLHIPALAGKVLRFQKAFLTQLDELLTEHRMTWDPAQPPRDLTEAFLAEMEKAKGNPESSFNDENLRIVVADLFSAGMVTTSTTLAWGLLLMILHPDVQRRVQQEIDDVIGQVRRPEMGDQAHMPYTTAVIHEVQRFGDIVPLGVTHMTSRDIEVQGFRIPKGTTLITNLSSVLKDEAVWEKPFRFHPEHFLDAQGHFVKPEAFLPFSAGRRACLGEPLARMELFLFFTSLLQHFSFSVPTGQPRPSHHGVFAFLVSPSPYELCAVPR

CC(=O)N1CCN(c2ccc(OCC3COC(Cn4ccnc4)(c4ccc(Cl)cc4Cl)O3)cc2)CC1 (stereo not given) [KETOCONAZOLE]
Stability [1]: Unstable

N[C@@H](Cc1cc(I)c(Oc2ccc(O)c(I)c2)c(I)c1)C(=O)O [LIOTHYRONINE]
Stability [1]: Unstable

Cc1cccc(CN2CCN(C(c3ccccc3)c3ccc(Cl)cc3)CC2)c1 (stereo not given) [MECLIZINE]
IC50 shift at 0.5 h [2, 11]: > 5
IC50 shift at 0.5 h ([3]; probe diethoxyfluorescein): 2
IC50 shift at 0.5 h ([4]; probe 7-benzyloxyquinoline): > 5
Stability [5]: Stable

Cc1cccc(C)c1NC(=O)C1CCCCN1C (stereo not given) [MEPIVACAINE]
IC50 shift at 0.5 h ([3]; probe diethoxyfluorescein): 2
IC50 shift at 0.5 h ([4]; probe 7-benzyloxyquinoline): 2
Stability [5]: Stable

C#C[C@]1(O)CC[C@H]2[C@@H]3CCc4cc(OC)ccc4[C@H]3CC[C@@]21C [MESTRANOL]
IC50 shift at 0.5 h ([3]; probe diethoxyfluorescein): > 5
IC50 shift at 0.5 h ([4]; probe 7-benzyloxyquinoline): > 5
Stability [6]: Unstable

C[C@](N)(Cc1ccc(O)c(O)c1)C(=O)O [METHYLDOPA]
Stability [1]: Unstable

Oc1ccc2c3c1O[C@H]1[C@@H](O)CC[C@@]4(O)[C@@H](C2)N(CC2CCC2)CC[C@]314 [NALBUPHINE]
IC50 shift at 0.5 h [7]: 2
Stability [5]: Stable

CS(=O)(=O)Nc1ccc([N+](=O)[O-])cc1Oc1ccccc1 [NIMESULIDE]
IC50 shift at 0.5 h [3]: 2
IC50 shift at 0.5 h [4]: < 2
Stability [1]: Unstable

CCN(CC)CC#CCOC(=O)C(O)(c1ccccc1)C1CCCCC1 (stereo not given) [OXYBUTYNIN]
IC50 shift at 0.5 h [8]: > 2
IC50 shift at 0.5 h [7]: < 2
IC50 shift at 0.5 h [2]: > 5
Stability [9]: Unstable

C1CCC(C(CC2CCCCN2)C2CCCCC2)CC1 (stereo not given) [PERHEXILINE]
IC50 shift at 0.5 h [7]: < 2

C[C@H]1[C@H](c2ccccc2)OCCN1C [PHENDIMETRAZINE]
Stability [1]: Unstable

NNCCc1ccccc1 [PHENELZINE]
IC50 shift at 0.5 h [8]: 2
IC50 shift at 0.5 h [7]: 2
IC50 shift at 0.5 h [2]: > 5
IC50 shift at 0.5 h [10]: > 5
IC50 shift at 0.5 h [3]: 2
Stability [6]: Unstable

CC(COc1ccccc1)N(CCCl)Cc1ccccc1 (stereo not given) [PHENOXYBENZAMINE]
IC50 shift at 0.5 h ([8]; probe ethoxyresorufin): 2
IC50 shift at 0.5 h ([7]; probe 7-methoxy-4-trifluoromethylcoumarin-3-acetic acid): < 2
IC50 shift at 0.5 h [2, 11]: 2
IC50 shift at 0.5 h ([3]; probe diethoxyfluorescein): 2
Stability [9]: Unstable

CN1C(C(=O)Nc2ccccn2)=C(O)c2ccccc2S1(=O)=O [PIROXICAM]
Stability [1]: Unstable

C[C@]12C=CC(=O)C=C1CC[C@@H]1[C@@H]2C(=O)C[C@@]2(C)[C@H]1CC[C@]2(O)C(=O)CO [PREDNISONE]
Stability [1]: Unstable

CN1CCN(CCCN2c3ccccc3Sc3ccc(Cl)cc32)CC1 [PROCHLORPERAZINE]
Stability [1]: Unstable

CCCc1cc(=O)[nH]c(=S)[nH]1 [PROPYLTHIOURACIL]
IC50 shift at 0.5 h [3]: > 5
IC50 shift at 0.5 h [4]: > 5
Stability [9]: Unstable

COc1ccc(CN(CCN(C)C)c2ccccn2)cc1 [PYRILAMINE]
IC50 shift at 0.5 h [10, 12]: 2
Stability [6]: Unstable

Nc1ccc(S(=O)(=O)Nc2ccnn2-c2ccccc2)cc1 [SULFAPHENAZOLE]
Stability [1]: Unstable

Nc1c2c(nc3ccccc13)CCCC2 [TACRINE]
IC50 shift at 0.5 h [7]: 2
IC50 shift at 0.5 h [2]: < 2
Stability [5]: Stable

CC1=C(/C=C/C(C)=C/C=C/C(C)=C/C(=O)O)C(C)(C)CCC1 [TRETINOIN]
IC50 shift at 0.5 h ([8]; probe ethoxyresorufin): < 2
IC50 shift at 0.5 h [2, 11]: 2
IC50 shift at 0.5 h [10, 12]: 2
IC50 shift at 0.5 h ([3]; probe diethoxyfluorescein): 2
IC50 shift at 0.5 h ([4]; probe 7-benzyloxyquinoline): > 5
Stability [5]: Stable

CC(c1cc2ccccc2s1)N(O)C(N)=O (stereo not given) [ZILEUTON]
IC50 shift at 0.5 h ([8]; probe ethoxyresorufin): > 5
Stability [5]: Stable

Source: ChEMBL document CHEMBL2069259, “Preclinical strategy to reduce clinical hepatotoxicity using in vitro bioactivation data for >200 compounds” (Chem Res Toxicol, 2012)
